Results: ChEMBL document CHEMBL2029244, “Synthesis and antimycobacterial activity of prodrugs of sulfur dioxide (SO2)” (Bioorg Med Chem Lett, 2012)
Values after ≈ are worked out from the molar mass of the structure shown.

Tested on: Mycobacterium tuberculosis
Test: Antimycobacterial activity against Mycobacterium tuberculosis H37Rv after 28 days
Assay type: functional
Conditions: 672 h; call rule not given here

First: NNC(=O)c1ccncc1 [ISONIAZID]
Second: NC(=O)c1cnccn1 [PYRAZINAMIDE]
The MIC of the first is 120-fold lower: 0.05 µg/mL (≈ 0.365 µM) for the first, 6.25 µg/mL (≈ 50.8 µM) for the second.

Going from `O=[N+]([O-])c1ccc(S(=O)(=O)NCc2ccccc2C(F)(F)F)c([N+](=O)[O-])c1` to `O=[N+]([O-])c1ccc(S(=O)(=O)NCc2ccc(C(F)(F)F)cc2)c([N+](=O)[O-])c1`, the MIC falls from 1.56 µg/mL (≈ 3.85 µM) to 0.4 µg/mL (≈ 0.987 µM) (3.9-fold).

`C[C@@H](NS(=O)(=O)c1ccc([N+](=O)[O-])cc1[N+](=O)[O-])c1ccccc1` and `C[C@H](NS(=O)(=O)c1ccc([N+](=O)[O-])cc1[N+](=O)[O-])c1ccccc1` are the same in MIC: 1.56 µg/mL (≈ 4.44 µM) for the first, 1.56 µg/mL (≈ 4.44 µM) for the second.

Going from `COc1ccc(CNS(=O)(=O)c2ccc([N+](=O)[O-])cc2[N+](=O)[O-])cc1` to `O=[N+]([O-])c1ccc(S(=O)(=O)NCc2ccc(Cl)cc2)c([N+](=O)[O-])c1`, the MIC rises from 0.25 µg/mL (≈ 0.681 µM) to 0.4 µg/mL (≈ 1.08 µM) (1.6-fold).

`CN(c1ccccc1)S(=O)(=O)c1ccc([N+](=O)[O-])cc1[N+](=O)[O-]` and `CN(CCc1ccccc1)S(=O)(=O)c1ccc([N+](=O)[O-])cc1[N+](=O)[O-]` are the same in MIC: 0.78 µg/mL (≈ 2.31 µM) for the first, 0.78 µg/mL (≈ 2.13 µM) for the second.

First: O=[N+]([O-])c1ccc(S(=O)(=O)Nc2ccc(F)cc2)c([N+](=O)[O-])c1
Second: N#Cc1ccc(NS(=O)(=O)c2ccc([N+](=O)[O-])cc2[N+](=O)[O-])cc1
The MIC of the first is lower: 6.25 µg/mL (≈ 18.3 µM) for the first, greater than 50 µg/mL for the second.

First: O=[N+]([O-])c1ccc(S(=O)(=O)NCCc2ccccc2)c([N+](=O)[O-])c1
Second: COc1ccccc1NS(=O)(=O)c1ccc([N+](=O)[O-])cc1[N+](=O)[O-]
The MIC of the first is 7.8-fold lower: 0.4 µg/mL (≈ 1.14 µM) for the first, 3.13 µg/mL (≈ 8.86 µM) for the second.

First: O=[N+]([O-])c1ccc(S(=O)(=O)N(Cc2ccccc2)c2ccccc2)c([N+](=O)[O-])c1
Second: O=[N+]([O-])c1ccc(S(=O)(=O)N(CCc2ccccc2)Cc2ccccc2)c([N+](=O)[O-])c1
The MIC of the first is 2-fold lower: 1.56 µg/mL (≈ 3.77 µM) for the first, 3.13 µg/mL (≈ 7.09 µM) for the second.

`CC[C@@H](CO)NCCN[C@@H](CC)CO` [ETHAMBUTOL] gave an MIC of 1.56 µg/mL (≈ 7.64 µM).

Tested on: not listed separately
Test: Drug degradation assessed as decrease in compound level at pH 7.4 after 30 mins in the presence of 2-mercaptoethanol
Assay type: physicochemical
Conditions: buffer, pH 7.4, 0.5 h

In the case of `COc1ccc(NS(=O)(=O)c2ccc([N+](=O)[O-])cc2[N+](=O)[O-])cc1`, the Drug degradation is reported as “Active”.

Tested on: not listed separately
Test: Drug degradation assessed as 2-hydroxyethylthio-2,4-dinitrobenzene production at pH 7.4 after 6 hrs in the presence of 2-mercaptoethanol
Assay type: physicochemical
Conditions: buffer, pH 7.4, 6 h

With `COc1ccc(NS(=O)(=O)c2ccc([N+](=O)[O-])cc2[N+](=O)[O-])cc1` the Drug degradation was “Active”.
